Results taken from US20060122267A1, “Compositions and methods for attenuating mitochondria-mediated cell injury” (priority 2003, published 2006).

System: mitochondrial proteins
Experiment: Biotin-switch analysis of mitochondrial protein S-nitrosation
Assay type: biochemical, rat
Experimental: Rat heart mitochondria were isolated using differential centrifugation (Tompkins, et al. (2005) Biochim. Biophys. Acta PMID: 16278076). Protein was determined by the Folin-phenol method (Lowry, et al. (1951) J. Bio. Chem. 193:265-75) against a standard curve constructed using bovine serum albumin. Mitochondrial incubations and all subsequent steps were performed in the dark. One mg of mitochondrial protein was suspended in 1 mL of mitochondrial respiration buffer (Tompkins, et al. (2005) supra) containing respiratory substrates glutamate (5 mM), malate (2.5 mM) and succinate (5 mM). […] Samples were centrifuged (5 minutes, 14,000×g), and supernatants removed. The pellets were then resuspended in 1 mL of respiration buffer, and centrifuged again. Pellets were frozen in liquid N2 for subsequent analysis. For ONOO^− treatments, 4 μL of 25 mM ONOO^− stock (100 μM final concentration) was added the cap of the reaction tube, the cap quickly closed and the tube shaken immediately. The process was then repeated twice at 30 second intervals, for a total of 3 additions. Mitochondria were then pelleted, washed, and frozen as for S-nitrosoglutathione samples. Complex I activity was assayed as the rotenone-sensitive oxidation of NADH, at 340 nm in the presence of coenzyme Q1 (Borutaite, et al. (2000) supra). Complex IV was assayed by monitoring the cyanide-sensitive first-order oxidation of reduced cytochrome c, at 550 nm according to established methods (Cleeter, et al. (1994) supra).
For biotin-switch analysis, intact mitochondrial pellets (1 mg protein solubilized in extraction buffer) or chromatography column fractions were analyzed in accordance with known methods (Jaffrey & Snyder (2001) supra). Samples were separated in duplicate on non-reducing SDS-PAGE gels; half the gel was stained with COOMASSIE® blue, and the other half blotted and probed with streptavidin-HRP and ECL™ detection (GE biosciences). Blots and stained gels were aligned, and S-nitrosated proteins excised, trypsinized, and identified by peptide mass fingerprinting. Mass spectra (MALDI-TOF) were analyzed using the MASCOT™ algorithm available on the world-wide web at matrixscience.com.

N[C@@H](CCC(=O)N[C@@H](CSN=O)C(=O)NCC(=O)O)C(=O)O [S-nitrosoglutathione]
S-nitrosation of entire mitochondrial protein extract, comparison of NO donors (S-nitrosoglutathione 1 mM, DETA-NONOate 2 mM, ONOO- 3 additions of 100 μM, 37° C., 40 minutes): far more S-nitrosation than DETA-NONOate or ONOO^−
concentration at which formation of protein bound S-nitrosothiol saturates (biotin-switch and chemiluminescent data together): ~250 µM
concentration at which plateau of mitochondrial protein S-nitrosation is reached (dose response over 50-250 μM): ~200 µM
